From ChEMBL document CHEMBL4400524, “Optimizing TRPM4 inhibitors in the MHFP6 chemical space” (Eur J Med Chem, 2019)
pIC50: −log10 of the molar value. Calls of active or inactive are those of the source. The calls are words filed in the database; no cut-off is given here.

Assays:
Type in all cases: cell-based
[1] = target: T1, Transient receptor potential cation channel subfamily M member 4 (Homo sapiens, UniProt Q8TD43); experiment: Inhibition of Flag-tagged TRPM4 (unknown origin) expressed in HEK293 cells assessed as reduction in intracellular Na+ influx after 45 mins by ANG2 dye-based fluorescence assay
T1 sequence (Q8TD43 whole entry): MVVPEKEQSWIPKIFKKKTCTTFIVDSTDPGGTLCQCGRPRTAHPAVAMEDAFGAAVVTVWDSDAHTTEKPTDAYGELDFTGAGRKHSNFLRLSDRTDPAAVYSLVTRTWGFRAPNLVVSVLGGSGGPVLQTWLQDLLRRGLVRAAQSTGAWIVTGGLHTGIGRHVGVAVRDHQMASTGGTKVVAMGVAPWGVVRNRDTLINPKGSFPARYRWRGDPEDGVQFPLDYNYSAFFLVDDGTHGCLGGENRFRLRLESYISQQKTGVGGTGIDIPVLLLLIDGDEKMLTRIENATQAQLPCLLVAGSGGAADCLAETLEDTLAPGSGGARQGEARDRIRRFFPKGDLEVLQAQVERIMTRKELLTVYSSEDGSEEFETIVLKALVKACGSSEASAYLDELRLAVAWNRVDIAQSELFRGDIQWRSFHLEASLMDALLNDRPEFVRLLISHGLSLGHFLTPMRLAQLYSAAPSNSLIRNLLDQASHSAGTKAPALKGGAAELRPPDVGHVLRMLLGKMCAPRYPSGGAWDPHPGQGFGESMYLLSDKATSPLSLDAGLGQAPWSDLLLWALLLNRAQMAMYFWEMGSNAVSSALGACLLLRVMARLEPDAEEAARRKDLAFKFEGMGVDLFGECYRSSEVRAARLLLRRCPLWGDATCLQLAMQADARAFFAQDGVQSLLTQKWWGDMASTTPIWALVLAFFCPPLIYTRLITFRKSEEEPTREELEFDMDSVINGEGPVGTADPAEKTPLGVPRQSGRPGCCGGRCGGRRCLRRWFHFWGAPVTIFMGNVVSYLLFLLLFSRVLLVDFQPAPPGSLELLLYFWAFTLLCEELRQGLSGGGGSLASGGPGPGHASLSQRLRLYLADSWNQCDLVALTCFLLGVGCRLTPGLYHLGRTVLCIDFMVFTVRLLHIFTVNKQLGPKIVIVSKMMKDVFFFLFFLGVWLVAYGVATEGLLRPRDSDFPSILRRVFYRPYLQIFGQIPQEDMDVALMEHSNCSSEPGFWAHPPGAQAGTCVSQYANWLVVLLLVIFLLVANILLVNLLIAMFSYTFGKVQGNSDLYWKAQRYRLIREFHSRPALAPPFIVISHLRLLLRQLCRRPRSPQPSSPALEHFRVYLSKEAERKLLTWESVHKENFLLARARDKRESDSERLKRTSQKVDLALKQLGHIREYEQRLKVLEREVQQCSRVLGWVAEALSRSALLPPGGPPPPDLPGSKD

[2] = target: T1, Transient receptor potential cation channel subfamily M member 4; experiment: Inhibition of Flag-tagged TRPM4 (unknown origin) expressed in HEK293 cells assessed as reduction in intracellular Na+ influx at 10 uM after 45 mins by ANG2 dye-based fluorescence assay relative to control
[3] = target: T1, Transient receptor potential cation channel subfamily M member 4; experiment: Inhibition of Flag-tagged TRPM4 (unknown origin) expressed in HEK293 cells assessed as reduction in intracellular Na+ influx up to 100 uM after 45 mins by ANG2 dye-based fluorescence assay

Row | Structure (SMILES) | pIC50 [1] | also measured
1 | O=C(COc1ccccc1Cl)Nc1cc(-c2ncco2)ccc1C(=O)O | 5.31 | –
2 | N#Cc1ccc(C(=O)O)c(NC(=O)COc2ccccc2Cl)c1 | 5.44 | –
3 | Cc1cc(Cl)ccc1OC(C)C(=O)Nc1cc(Cl)ccc1C(=O)O (centres undefined) | – | pIC50 ([1]; hek293): 5.80
4 | O=C(COc1ccccc1Cl)Nc1cc(-c2ccsc2)ccc1C(=O)O | 5.23 | –
5 | Cc1cccc(NC(=O)COc2ccccc2Cl)c1C(=O)O | 5.89 | –
6 | O=C(COc1ccccc1Cl)Nc1cc(-c2nccs2)ccc1C(=O)O | 5.33 | –
7 | O=C(COc1ccccc1Cl)Nc1cc(Cl)c(Cl)cc1C(=O)O | – | inhibition [2]: 30%
8 | Cc1noc(C)c1-c1ccc(C(=O)O)c(NC(=O)COc2ccccc2Cl)c1 | – | inhibition [3]: inactive
9 | O=C(COc1ccccc1Cl)Nc1cc(Cl)ccc1C(=O)NS(=O)(=O)C1CC1 | 5.55 | –
